Data reported in US10660877B2 (BRISTOL-MYERS SQUIBB COMPANY, priority 2016, dated 2020).
Read-outs that look alike come from different tables or passages of the source.

Assays:
[1] = target: human TLR7 (Homo sapiens (Human), UniProt Q9NYK1); assay: TLR7 inhibition reporter assay (HEK-Blue cells, SEAP reporter, gardiquimod stimulation); type: cell-based
[2] = target: human TLR8 (Homo sapiens (Human), UniProt Q9NR97); assay: TLR8 inhibition reporter assay (HEK-Blue cells, SEAP reporter, R848 stimulation);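 further: compounds tested from 0.05 nM to 50 µM, 22 h at 37 °C, SEAP measured with HEK-Blue Detection, inhibition relative to agonist plus DMSO versus a known inhibitor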
Sequence of human TLR8 (Q9NR97 27-1041): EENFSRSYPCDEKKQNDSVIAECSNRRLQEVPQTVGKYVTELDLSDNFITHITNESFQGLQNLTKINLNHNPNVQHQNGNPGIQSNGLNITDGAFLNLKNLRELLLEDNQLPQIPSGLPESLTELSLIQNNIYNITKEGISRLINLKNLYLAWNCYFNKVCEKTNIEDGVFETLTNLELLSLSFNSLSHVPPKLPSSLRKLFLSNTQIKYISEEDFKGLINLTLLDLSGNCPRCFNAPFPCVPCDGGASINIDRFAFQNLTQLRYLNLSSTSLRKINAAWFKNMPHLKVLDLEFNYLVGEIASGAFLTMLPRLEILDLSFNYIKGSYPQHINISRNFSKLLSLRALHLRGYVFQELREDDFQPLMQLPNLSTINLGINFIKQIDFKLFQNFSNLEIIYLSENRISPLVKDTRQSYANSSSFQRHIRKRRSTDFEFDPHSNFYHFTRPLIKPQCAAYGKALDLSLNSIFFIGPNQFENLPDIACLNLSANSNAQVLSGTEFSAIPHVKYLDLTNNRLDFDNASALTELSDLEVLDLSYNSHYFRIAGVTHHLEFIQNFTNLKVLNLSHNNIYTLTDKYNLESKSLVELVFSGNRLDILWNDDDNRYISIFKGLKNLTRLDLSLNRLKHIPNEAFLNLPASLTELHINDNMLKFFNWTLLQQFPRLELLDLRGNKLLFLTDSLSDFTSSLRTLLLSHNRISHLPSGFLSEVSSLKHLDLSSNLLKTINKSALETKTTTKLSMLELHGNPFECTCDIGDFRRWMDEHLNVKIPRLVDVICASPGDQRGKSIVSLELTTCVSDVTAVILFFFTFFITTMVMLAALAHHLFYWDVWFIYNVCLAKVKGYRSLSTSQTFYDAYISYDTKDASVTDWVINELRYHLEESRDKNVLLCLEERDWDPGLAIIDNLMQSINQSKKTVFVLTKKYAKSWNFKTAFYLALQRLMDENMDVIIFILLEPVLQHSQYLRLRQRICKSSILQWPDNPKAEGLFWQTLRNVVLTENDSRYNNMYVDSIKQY

[3] = target: human TLR9 (Homo sapiens (Human), UniProt Q9NR96); assay: TLR9 inhibition reporter assay (HEK-Blue cells, SEAP reporter, ODN2006 stimulation);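 further: compounds tested over 0.05 nM to 50 µM, 22 h incubation, inhibition taken as SEAP signal drop from agonist plus DMSO wells toward a known inhibitor control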
Sequence of human TLR9 (Q9NR96 26-1032): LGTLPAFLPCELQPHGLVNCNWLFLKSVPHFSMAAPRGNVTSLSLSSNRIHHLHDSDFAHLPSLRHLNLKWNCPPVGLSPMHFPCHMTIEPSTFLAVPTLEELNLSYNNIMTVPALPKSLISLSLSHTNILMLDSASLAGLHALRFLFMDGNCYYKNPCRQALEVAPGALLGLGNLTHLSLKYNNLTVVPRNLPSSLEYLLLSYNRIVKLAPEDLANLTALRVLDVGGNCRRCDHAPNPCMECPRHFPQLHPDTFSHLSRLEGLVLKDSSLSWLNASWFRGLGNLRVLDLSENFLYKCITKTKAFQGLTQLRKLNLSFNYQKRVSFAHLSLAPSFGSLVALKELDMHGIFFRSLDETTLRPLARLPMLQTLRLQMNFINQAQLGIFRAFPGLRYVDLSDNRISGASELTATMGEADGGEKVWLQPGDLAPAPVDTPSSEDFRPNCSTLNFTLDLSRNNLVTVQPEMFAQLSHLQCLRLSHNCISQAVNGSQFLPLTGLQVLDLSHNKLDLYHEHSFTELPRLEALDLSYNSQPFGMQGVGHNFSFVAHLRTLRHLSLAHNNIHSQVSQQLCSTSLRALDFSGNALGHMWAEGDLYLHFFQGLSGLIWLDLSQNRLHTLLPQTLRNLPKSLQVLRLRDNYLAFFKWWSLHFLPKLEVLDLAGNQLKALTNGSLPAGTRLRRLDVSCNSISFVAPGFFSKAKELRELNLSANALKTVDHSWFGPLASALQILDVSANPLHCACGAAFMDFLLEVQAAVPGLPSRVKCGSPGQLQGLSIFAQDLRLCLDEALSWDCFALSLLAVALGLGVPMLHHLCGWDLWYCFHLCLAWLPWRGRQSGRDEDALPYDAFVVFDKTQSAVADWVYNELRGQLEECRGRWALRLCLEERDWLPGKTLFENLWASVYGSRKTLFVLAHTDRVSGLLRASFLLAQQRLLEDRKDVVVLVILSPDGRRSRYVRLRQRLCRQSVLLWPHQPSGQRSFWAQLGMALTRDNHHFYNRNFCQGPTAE

[4] = HEK-Blue cells overexpressing human TLR7, gardiquimod 7.5 μM
[5] = read-out: TLR8 IC50, HEK-Blue cells overexpressing human TLR8, R848 15.9 μM
[6] = read-out: TLR9 IC50, HEK-Blue cells overexpressing human TLR9, ODN2006 5 nM
[7] = TLR8 IC50, HEK-Blue cells overexpressing human TLR8, R848 15.9 μM
[8] = TLR9 IC50, HEK-Blue cells overexpressing human TLR9, ODN2006 5 nM
[9] = HEK-Blue cells, gardiquimod 7.5 μM
[10] = read-out: TLR8 IC50, HEK-Blue cells, R848 15.9 μM
[11] = read-out: TLR9 IC50, HEK-Blue cells, ODN2006 5 nM

Sequence of human TLR7 (Q9NYK1 27-1049): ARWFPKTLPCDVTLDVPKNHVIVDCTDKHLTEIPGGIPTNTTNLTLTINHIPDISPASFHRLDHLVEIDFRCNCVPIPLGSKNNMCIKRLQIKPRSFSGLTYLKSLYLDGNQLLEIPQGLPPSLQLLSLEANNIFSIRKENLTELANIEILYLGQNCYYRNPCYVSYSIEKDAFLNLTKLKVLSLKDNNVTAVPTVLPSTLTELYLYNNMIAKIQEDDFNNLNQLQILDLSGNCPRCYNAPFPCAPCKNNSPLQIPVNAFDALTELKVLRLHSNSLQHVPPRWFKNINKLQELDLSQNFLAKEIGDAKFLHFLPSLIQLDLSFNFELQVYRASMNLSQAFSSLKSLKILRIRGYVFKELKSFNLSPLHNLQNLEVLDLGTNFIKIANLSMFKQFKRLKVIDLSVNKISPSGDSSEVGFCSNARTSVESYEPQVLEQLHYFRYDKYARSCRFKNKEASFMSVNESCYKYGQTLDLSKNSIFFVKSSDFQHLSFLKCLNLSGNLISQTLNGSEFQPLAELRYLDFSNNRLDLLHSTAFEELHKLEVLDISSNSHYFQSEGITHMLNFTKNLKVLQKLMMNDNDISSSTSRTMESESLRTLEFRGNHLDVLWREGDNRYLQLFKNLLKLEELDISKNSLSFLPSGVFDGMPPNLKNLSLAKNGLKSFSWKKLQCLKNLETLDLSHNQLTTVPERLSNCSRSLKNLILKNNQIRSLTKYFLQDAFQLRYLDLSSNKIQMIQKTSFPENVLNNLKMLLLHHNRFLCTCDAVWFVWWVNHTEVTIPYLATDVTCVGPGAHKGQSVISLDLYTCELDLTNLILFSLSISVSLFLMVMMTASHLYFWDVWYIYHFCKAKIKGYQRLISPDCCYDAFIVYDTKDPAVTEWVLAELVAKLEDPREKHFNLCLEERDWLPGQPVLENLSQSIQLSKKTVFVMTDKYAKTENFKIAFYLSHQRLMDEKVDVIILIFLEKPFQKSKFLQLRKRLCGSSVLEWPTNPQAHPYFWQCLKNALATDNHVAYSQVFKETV

IC50 [1, 4]	IC50 [2, 5]	IC50 [3, 6]	IC50 [2, 7]	IC50 [3, 8]	IC50 [1, 9]	IC50 [2, 10]	IC50 [3, 11]	SMILES
17.9 nM	191 nM	25800 nM	–	–	–	–	–	Cc1cc(-c2[nH]c3ccc(C4CCN(C(=O)CN5CCCC(F)(F)C5)CC4)cc3c2C(C)C)cc(C)n1 [Example 390, 2-(3,3-difluoropiperidin-1-yl)-1-(4-(2-(2,6-dimethylpyridin-4-yl)-3-isopropyl-1H-indol-5-yl)piperidin-1-yl)ethan-1-one]
11.8 nM	25.6 nM	131 nM	–	–	–	–	–	Cc1cc(-c2[nH]c3ccc(C4CCN(C5CCN(C(C)C)CC5)CC4)cc3c2CC(F)F)cc(C)n1 [Example 540, 3-(2,2-difluoroethyl)-2-(2,6-dimethylpyridin-4-yl)-5-(1′-isopropyl-[1,4′-bipiperidin]-4-yl)-1H-indole]
2.9 nM	1.2 nM	2300 nM	–	–	–	–	–	Cc1nccc(-c2[nH]c3ccc(C4CCNCC4)cc3c2C(C)C)c1F [Example 53, 2-(3-fluoro-2-methylpyridin-4-yl)-3-isopropyl-5-(piperidin-4-yl)-1H-indole]
6.5 nM	–	–	54.1 nM	1890 nM	–	–	–	Cc1cc(-c2[nH]c3ccc(C4CCN(C(=O)CNCC(C)O)CC4)cc3c2C(C)C)cc(C)n1 (stereo not drawn) [Example 367, 1-(4-(2-(2,6-dimethylpyridin-4-yl)-3-isopropyl-1H-indol-5-yl)piperidin-1-yl)-2-((2-hydroxypropyl)amino)ethan-1-one]
1.2 nM	3.1 nM	69 nM	–	–	–	–	–	Cc1cc(-c2[nH]c3ccc(C4CCN(Cc5cn[nH]c5)CC4)cc3c2C(C)C)cc(C)n1 [Example 438, 5-(1-((1H-pyrazol-4-yl)methyl)piperidin-4-yl)-2-(2,6-dimethylpyridin-4-yl)-3-isopropyl-1H-indole]
–	–	–	–	–	2.9 nM	3.4 nM	1950 nM	Cc1cc(-c2[nH]c3cc(F)c(C4CCN(CC(=O)N(C)C)CC4)cc3c2C(C)C)c(C)cn1 [Example 835, 2-(4-(2-(2,5-dimethylpyridin-4-yl)-6-fluoro-3-isopropyl-1H-indol-5-yl)piperidin-1-yl)-N,N-dimethylacetamide]
4.4 nM	76.3 nM	19200 nM	–	–	–	–	–	CNC(=O)C(=O)N1CCC(c2ccc3[nH]c(-c4cc(C)nc(C)c4)c(C(C)C)c3c2)CC1 [Example 205, 2-(4-(2-(2,6-dimethylpyridin-4-yl)-3-isopropyl-1H-indol-5-yl)piperidin-1-yl)-N-methyl-2-oxoacetamide]
7.6 nM	2.8 nM	217 nM	–	–	–	–	–	Cc1cc(-c2[nH]c3ccc(C4CCN(C5CCCN(C(C)C)C5)CC4)cc3c2C(C)C)ccn1 (stereo not drawn) [Example 707, 3-isopropyl-5-(1′-isopropyl-[1,3′-bipiperidin]-4-yl)-2-(2-methylpyridin-4-yl)-1H-indole]
0.9 nM	8.4 nM	778 nM	–	–	–	–	–	Cc1cc(-c2[nH]c3ccc(C4CCN(C(=O)CN5CCN(C)CC5)CC4)cc3c2C(C)C)cc(C)n1 [Example 163, 1-(4-(2-(2,6-dimethylpyridin-4-yl)-3-isopropyl-1H-indol-5-yl)piperidin-1-yl)-2-(4-methylpiperazin-1-yl)ethan-1-one]
5.6 nM	8.7 nM	646 nM	–	–	–	–	–	Cc1cc(-c2[nH]c3ccc(C4CCN(Cc5ccon5)CC4)cc3c2C(C)C)cc(C)n1 [Example 432, 3-((4-(2-(2,6-dimethylpyridin-4-yl)-3-isopropyl-1H-indol-5-yl)piperidin-1-yl)methyl)isoxazole]
5.3 nM	2.1 nM	3740 nM	–	–	–	–	–	Cc1cc(-c2[nH]c3ccc(C4CCN(CC(N)=O)CC4)cc3c2C(C)C)c(C)cn1 [Example 651, 2-(4-(2-(2,5-dimethylpyridin-4-yl)-3-isopropyl-1H-indol-5-yl)piperidin-1-yl)acetamide]
6.3 nM	6.3 nM	2560 nM	–	–	–	–	–	Cc1cc(-c2[nH]c3ccc(C4CCN(Cc5nncn5C)CC4)cc3c2C(C)C)cc(C)n1 [Example 464, 2-(2,6-dimethylpyridin-4-yl)-3-isopropyl-5-(1-((4-methyl-4H-1,2,4-triazol-3-yl)methyl)piperidin-4-yl)-1H-indole]
10.8 nM	24.1 nM	1230 nM	–	–	–	–	–	CNC(=O)CN1CCC(c2ccc3[nH]c(-c4cc(C)nc(C5CC5)c4)c(C(C)C)c3c2)CC1 [Example 503, 2-(4-(2-(2-cyclopropyl-6-methylpyridin-4-yl)-3-isopropyl-1H-indol-5-yl)piperidin-1-yl)-N-methylacetamide]
6.5 nM	–	–	22.9 nM	854 nM	–	–	–	Cc1cc(-c2[nH]c3ccc(C4CCN(C(=O)CNCC5(C)CC5)CC4)cc3c2C(C)C)cc(C)n1 [Example 365, 1-(4-(2-(2,6-dimethylpyridin-4-yl)-3-isopropyl-1H-indol-5-yl)piperidin-1-yl)-2-(((1-methylcyclopropyl)methyl)amino)ethan-1-one]
4.5 nM	21 nM	742 nM	–	–	–	–	–	Cc1cc(-c2[nH]c3ccc(C4CCN(C(=O)CN5C(C)CCC5C)CC4)cc3c2C(C)C)cc(C)n1 (stereo not drawn) [Example 368, 1-(4-(2-(2,6-dimethylpyridin-4-yl)-3-isopropyl-1H-indol-5-yl)piperidin-1-yl)-2-(2,5-dimethylpyrrolidin-1-yl)ethan-1-one]
8.1 nM	6.3 nM	492 nM	–	–	–	–	–	Cc1cc(-c2[nH]c3ccc(C4CCN(C5CCNC(C)C5)CC4)cc3c2C(C)C)ccn1 (stereo not drawn) [Example 708, 3-isopropyl-5-(2′-methyl-[1,4′-bipiperidin]-4-yl)-2-(2-methylpyridin-4-yl)-1H-indole]
–	–	–	–	–	292 nM	28.4 nM	38 nM	Cc1c(-c2ccncc2)[nH]c2ccc(C3CCN(C4CCN(C(C)C)CC4)CC3)cc12 [Example 843, 5-(1′-isopropyl-[1,4′-bipiperidin]-4-yl)-3-methyl-2-(pyridin-4-yl)-1H-indole]
6.2 nM	14 nM	261 nM	–	–	–	–	–	Cc1cc(-c2[nH]c3ccc(C4CCN(CC(=O)N5CCC6(CC5)COC6)CC4)cc3c2C(C)C)cc(C)n1 [Example 286, 2-(4-(2-(2,6-dimethylpyridin-4-yl)-3-isopropyl-1H-indol-5-yl)piperidin-1-yl)-1-(2-oxa-7-azaspiro[3.5]nonan-7-yl)ethan-1-one]
11.4 nM	90.3 nM	34600 nM	–	–	–	–	–	CC(=O)N(C)CCC(=O)N1CCC(c2ccc3[nH]c(-c4cc(C)nc(C)c4)c(C(C)C)c3c2)CC1 [Example 134, N-(3-(4-(2-(2,6-dimethylpyridin-4-yl)-3-isopropyl-1H-indol-5-yl)piperidin-1-yl)-3-oxopropyl)-N-methylacetamide]
9.1 nM	4.2 nM	609 nM	–	–	–	–	–	Cc1cc(-c2[nH]c3ccc(C4CCN(Cc5ccncc5)CC4)cc3c2C(C)C)cc(C)n1 [Example 435, 2-(2,6-dimethylpyridin-4-yl)-3-isopropyl-5-(1-(pyridin-4-ylmethyl)piperidin-4-yl)-1H-indole]
10.7 nM	117 nM	45500 nM	–	–	–	–	–	Cc1cc(-c2[nH]c3ccc(C4CCN(C(=O)CN(C)Cc5ncn(C)n5)CC4)cc3c2C(C)C)cc(C)n1 [Example 419, 1-(4-(2-(2,6-dimethylpyridin-4-yl)-3-isopropyl-1H-indol-5-yl)piperidin-1-yl)-2-(methyl((1-methyl-1H-1,2,4-triazol-3-yl)methyl)amino)ethan-1-one]
33.1 nM	99.9 nM	13300 nM	–	–	–	–	–	Cc1cc(C(=O)N2CCC(c3ccc4[nH]c(-c5cc(C)nc(C)c5)c(C(C)C)c4c3)CC2)c(=O)[nH]n1 [Example 135, 4-(4-(2-(2,6-dimethylpyridin-4-yl)-3-isopropyl-1H-indol-5-yl)piperidine-1-carbonyl)-6-methylpyridazin-3 (2H)-one]
333 nM	1040 nM	> 50000 nM	–	–	–	–	–	Cc1cc(-c2[nH]c3ccc(C4CCN(S(=O)(=O)c5ccccc5)CC4)cc3c2C(C)C)ccn1 [Example 547, 3-isopropyl-2-(2-methylpyridin-4-yl)-5-(1-(phenylsulfonyl)piperidin-4-yl)-1H-indole]
2.6 nM	18.3 nM	542 nM	–	–	–	–	–	Cc1cc(-c2[nH]c3ccc(C4CCN(C(=O)CN5CCN(CCO)CC5)CC4)cc3c2C(C)C)cc(C)n1 [Example 171, 1-(4-(2-(2,6-dimethylpyridin-4-yl)-3-isopropyl-1H-indol-5-yl)piperidin-1-yl)-2-(4-(2-hydroxyethyl)piperazin-1-yl)ethan-1-one]
2110 nM	86.6 nM	159 nM	–	–	–	–	–	CCc1c(-c2ccncc2)[nH]c2ccc(C3CCN(C4CCN(CC(C)C)CC4)CC3)cc12 [Example 779, 3-ethyl-5-(1′-isobutyl-[1,4′-bipiperidin]-4-yl)-2-(pyridin-4-yl)-1H-indole]
7.1 nM	35.8 nM	> 50000 nM	–	–	–	–	–	Cc1cc(-c2[nH]c3ccc(C4CCN(C(=O)CN5C(=O)CN(C)C5=O)CC4)cc3c2C(C)C)cc(C)n1 [Example 160, 3-(2-(4-(2-(2,6-dimethylpyridin-4-yl)-3-isopropyl-1H-indol-5-yl)piperidin-1-yl)-2-oxoethyl)-1-methylimidazolidine-2,4-dione]
2 nM	–	–	6.2 nM	225 nM	–	–	–	Cc1cc(-c2[nH]c3ccc(C4CCN(CC(=O)N5CCC[C@H](O)C5)CC4)cc3c2C(C)C)cc(C)n1 [Example 210, (S)-2-(4-(2-(2,6-dimethylpyridin-4-yl)-3-isopropyl-1H-indol-5-yl)piperidin-1-yl)-1-(3-hydroxypiperidin-1-yl)ethan-1-one]
